Measurements: patent US7060698B2, “Benzoxazepinone derivatives” (Hoffmann-La Roche Inc., priority 2003, dated 2006)

What follows are compounds tested against γ-secretase (Homo sapiens, UniProt P49768) (assay: in vitro assay of γ-secretase activity (HEK293 membrane fraction, recombinant APP substrate, Abeta ELISA)). Conditions: statement in the synthesis example on the separated diastereomers; assay not named.
Type: biochemical
Description: The activity of test compounds can be evaluated in assays which measure the proteolytic cleavage of suitable substrates by γ-secretase activity. These can be cellular assays where e.g., a substrate of the γ-secretase is fused in its cytoplasmic domain to a transcription factor. Cells are transfected with this fusion gene and a reporter gene, e.g., firefly luciferase, which expression is enhanced by the transcription factor. Cleavage of the fused substrate by γ-secretase will lead to expression of the reporter gene which can be monitored in appropriate assays. The γ-secretase activity can also be determined in cell-free in vitro assays where e.g., a cell lysate containing the γ-secretase complex is incubated with a suitable APP-derived substrate which is cleaved to the Abeta peptides. The amount of produced peptides can be determined with specific ELISA assays. Cell lines of neuronal origin secrete Abeta peptides which can be measured with the specific ELISA assay. Treatment with compounds which inhibit γ-secretase leads to a reduction of secreted Abeta thus providing a measure of inhibition. The in vitro assay of γ-secretase activity uses a HEK293 membrane fraction as a source of γ-secretase and a recombinant APP substrate. Latter consist of the C-terminal 100 amino acids of human APP fused to a 6× Histidin tail for purification which is expressed in E. coli in a regulatable expression vector, e.g. pEt15. This recombinant protein corresponds to the truncated APP fragment which results after […] of the extracellular domain and which constitutes the γ-secretase substrate. The assay principle is described in Li Y M et al, PNAS 97(11), 6138–6143 (2000). Hek293 cells are mechanically disrupted and the microsomal fraction is isolated by differential centrifugation. The membranes are solubilized in detergent (0.25% CHAPSO) and incubated with the APP substrate.

| SMILES | inhibitory activity of the separated diastereomers |
| --- | --- |
| CCC1Oc2ccc(Cl)cc2C(C(=O)NC2CCCCC2)N(C2CCCCC2)C1=O (stereo not drawn) [Example 6, 7-Chloro-4-cyclohexyl-2-ethyl-3-oxo-2,3,4,5-tetrahydro-benzo[f][1,4]oxazepine-5-carboxylic acid cyclohexylamide] | both inhibitorily active |
| CCC1Oc2ccc(Cl)cc2C(C(=O)NC2CCCCC2)N(Cc2ccccc2Cl)C1=O (stereo not drawn) [Example 7, 7-Chloro-4-(2-chloro-benzyl)-2-ethyl-3-oxo-2,3,4,5-tetrahydro-benzo[f][1,4]oxazepine-5-carboxylic acid cyclohexylamide] | both inhibitorily active |
| CCC1Oc2ccc(Cl)cc2C(C(=O)NC2CCCCC2)N(C2CCCC2)C1=O (stereo not drawn) [Example 9, 7-Chloro-4-cyclopentyl-2-ethyl-3-oxo-2,3,4,5-tetrahydro-benzo[f][1,4]oxazepine-5-carboxylic acid cyclohexylamide] | both inhibitorily active |
| CCC1Oc2ccc(Cl)cc2C(C(=O)NC2CCCCC2)N(C2CCOCC2)C1=O (stereo not drawn) [Example 10, 7-Chloro-2-ethyl-3-oxo-4-(tetrahydro-pyran-4-yl)-2,3,4,5-tetrahydro-benzo[f][1,4]oxazepine-5-carboxylic acid cyclohexylamide] | both inhibitorily active |
| CCC1Oc2ccc(Cl)cc2C(C(=O)NC2CCCCC2)N(Cc2cccc(C(F)(F)F)c2)C1=O (stereo not drawn) [Example 11, 7-Chloro-2-ethyl-3-oxo-4-(3-trifluoromethyl-benzyl)-2,3,4,5-tetrahydro-benzo[f][1,4]oxazepine-5-carboxylic acid cyclohexylamide] | both inhibitorially active |
| CCC1Oc2ccc(Cl)cc2C(C(=O)NC(C)(C)C)N(Cc2c(F)cccc2F)C1=O (stereo not drawn) [Example 12, 7-Chloro-4-(2,6-difluoro-benzyl)-2-ethyl-3-oxo-2,3,4,5-tetrahydro-benzo[f][1,4]oxazepine-5-carboxylic acid tert-butylamide] | both inhibitorially active |

Next, values leading:

| inhibitory activity of the separated diastereomers | SMILES |
| --- | --- |
| both inhibitorily active | CCC1Oc2ccc(Cl)cc2C(C(=O)NC(C)(C)C)N(C2CCCCC2)C1=O (stereo not drawn) [Example 13, 7-Chloro-4-cyclohexyl-2-ethyl-3-oxo-2,3,4,5-tetrahydro-benzo[f][1,4]oxazepine-5-carboxylic acid tert-butylamide] |
| both inhibitorily active | CCC1Oc2ccc(Cl)cc2C(C(=O)NC(C)(C)C)N(Cc2ccccc2Cl)C1=O (stereo not drawn) [Example 14, 7-Chloro-4-(2-chloro-benzyl)-2-ethyl-3-oxo-2,3,4,5-tetrahydro-benzo[f][1,4]oxazepine-5-carboxylic acid tert-butylamide] |
| both inhibitorily active | CCC1Oc2ccc(Cl)cc2C(C(=O)NC(C)(C)C)N(C2CCCC2)C1=O (stereo not drawn) [Example 16, 7-Chloro-4-cyclopentyl-2-ethyl-3-oxo-2,3,4,5-tetrahydro-benzo[f][1,4]oxazepine-5-carboxylic acid tert-butylamide] |
